Key:
[1] = test system: A549; experiment: Mammalian cell line specificity assay (alamar blue); type: cell-based, human; details: Table S1; PMLSC library samples; read-out: EC50 Ave ± SD, A549
Description: Mammalian cells were cultured and maintained according to ATCC specifications (ATCC, Manassas, VA). Cell line drug susceptibility assays were performed in final volumes of 25 µL using our previously described 384-well microtiter plate format,[39]. […] Test and control compounds were added to individual wells as described above. Vehicle and positive controls were 1% DMSO and 10% DMSO, respectively (final well concentrations). Assay plates were incubated for 44–46 h at 37°C in the presence of 5% CO2 and growth inhibitory effects were determined as described above. Five µL of alamar blue reagent was added to each well and incubated for 2–4 h. Data were captured as described above.

[2] = test system: L. major promastigotes; experiment: L. major promastigote drug susceptibility assay (alamar blue, 384-well); type: cell-based, Leishmania major; details: Table S1; PMLSC library samples, 10-point 0.01–5.00 µM; read-out: EC50 Ave ± SD, Lm
Description: Promastigotes were grown in vented T75 tissue culture flasks and maintained at 28°C. Promastigote cultures were initiated at 10^5 parasites per mL and subcultured every 3–4 days. L. major promastigote counts were performed in duplicate using a hemocytometer and particle counter (Beckman Coulter, Fullerton, CA). For HTS assays, L. major promastigote cultures were harvested during exponential growth phase (∼2.0–3.0×10^7 parasites/mL) and were not maintained past passage 20.
The final test compound concentration was 10 µM with a constant DMSO concentration of 1% in each assay well.
The L. major promastigote drug susceptibility assay was performed in a final volume of 25 µL using our previously described 384-well microtiter plate format,[39]. For automated HTS procedures, L. major promastigotes (5,000 parasites/22 µL) in complete growth medium were seeded into each well of the microtiter plates using a MAPC2 bulk dispenser (Titertek, Huntsville, AL). Test and control compounds (3 µL) were added to individual wells using a Velocity 11 V-prep (Menlo Park, CA) liquid handling system, equipped with a 384-well dispensing head, followed by centrifugation at 50 g for 1 min. […] Assay plates were allowed to incubate for 44 h at 28°C in the presence of 5% CO2. Five µL of alamar blue reagent were added to each assay plate well and incubated for 4 h at 28°C with 5% CO2. Data were captured on a Molecular Devices SpectraMax M5 (excitation560; emission590). Individual assay plate Z-factors were derived from the vehicle and positive controls, and data from plates were used only if Z-factors were >0.5 [50].
The assays were performed in duplicate with a final 10-point concentration range spanning 0.01–5.00 µM.

Row | EC50 [1] [nM] | EC50 [2] [nM] | SMILES
1 | 3550 ± 582 | 767 ± 160 | CC(C)(C)c1ccc(-n2nc(C#N)c(Cl)cc2=O)cc1 [CID 2766929]
2 | > 5000 | 165 ± 25 | Cn1cc(CN2CCC(CO)CC2)c(-c2ccc(Oc3ccccc3)cc2)n1 [CID 16187569]
3 | > 5000 | 50 ± 9 | COc1ccc(/C=C/c2cc[n+](C(=O)Cc3ccccc3)cc2)cc1 [CID 16196001]
4 | > 5000 | 174 ± 32 | CC[n+]1c(/C=C/N(C)c2ccccc2)sc2ccc(Cl)cc21.[O-][Cl+3]([O-])([O-])[O-] [CID 11958710]
5 | 1300 ± 76 | 10 ± 2 | CCCCCCCCCCCCCCCC[n+]1ccc(/C=N/O)cc1 [CID 11293258]
6 | > 5000 | 746 ± 211 | CC(=O)O[C@@H]1C[C@H]2C(C)(C)C(=O)C=C[C@]2(C)[C@H]2CC[C@@]3(C)[C@H](c4ccoc4)OC(=O)[C@H]4O[C@]43[C@@]21C [CID 12004512]
7 | > 5000 | 137 ± 40 | c1ccc2c(c1)OC(CCCN1CCCCC1)c1ccccc1S2 (stereo not drawn) [CID 9549148]
8 | > 5000 | 15 ± 1 | Cc1cc(/C=C2\Sc3ccccc3N2C)cc(C)[n+]1CC1CCCO1 (stereo not drawn) [CID 16196319]
9 | 955 ± 25 | 242 ± 29 | COc1ccc(NC(=O)/C(Cl)=C(/Cl)[S+]([O-])Cc2ccccc2Cl)cn1 (stereo not drawn) [CID 1475345]
10 | > 5000 | 83 ± 5 | N=c1c2c(n(Cc3ccccc3)c3c1CCC3)CCC2 [CID 6603247]
11 | > 5000 | 856 ± 33 | Cc1nc([N+](=O)[O-])nn1C12CC3CC(CC(Cl)(C3)C1)C2 [CID 5032706]

Continued, compound first:

Row | SMILES | EC50 [1] [nM] | EC50 [2] [nM]
12 | Cc1ccccc1-n1ncc2c([N+](=O)[O-])cc([N+](=O)[O-])cc21 [CID 3932660] | > 5000 | 61 ± 4
13 | Nc1nsc2ccccc12 [CID 89966] | > 5000 | 392 ± 40
14 | Cc1c(Cl)sn(-c2ccc(Cl)cc2)c1=O [CID 759209] | 2580 ± 185 | 545 ± 118
15 | O=C(c1cccnc1)N(c1cc2sc(=O)oc2c2ccccc12)S(=O)(=O)c1ccccc1 [CID 3980962] | > 5000 | 192 ± 2
16 | COc1ccc2cc3[n+](cc2c1OC)CCc1cc2c(cc1-3)OCO2 [CID 629413] | > 5000 | 379 ± 77
17 | Cc1ccc(-c2cc3cccc[n+]3cc2-c2ccc(C)cc2)cc1 [CID 13481921] | > 5000 | 229 ± 34
18 | CCCCCCCCCCCCCCCC[n+]1cccc(C(=O)N(CC)CC)c1 [CID 12005597] | 4070 ± 721 | 629 ± 107
19 | CN(C)C(=O)c1ccc[n+](CC(=O)Nc2ccc(Cl)cc2)c1 [CID 422270] | 2920 ± 320 | 289 ± 44
20 | COc1ccc(C2=NCC(CSc3nnc(-c4ccc5c(c4)OCO5)o3)S2)cc1 (stereo not drawn) [CID 2999476] | > 5000 | 187 ± 26
21 | C[n+]1c(-c2ccccc2)cc(CCCCc2cc(-c3ccccc3)[n+](C)c(-c3ccccc3)c2)cc1-c1ccccc1.[O-][Cl+3]([O-])([O-])O [CID 16196006] | > 5000 | 703 ± 44
22 | CCOC(=O)C(=Cc1cc(=O)c(OC)co1)C(=O)OCC [CID 1811924] | > 5000 | 166 ± 9
23 | Cc1ccccc1NC1=C/C(=N\S(=O)(=O)c2cccs2)c2ccccc2C1=O [CID 11834470] | > 5000 | 211 ± 47
24 | CCCCCCCCCCCCCCCCn1cc[n+](C)c1 [CID 2846928] | 1640 ± 59 | 35 ± 1
25 | CCC(/C=C1\Sc2ccc(OC)cc2N1CCO)=C\c1sc2ccc(OC)cc2[n+]1CCO [CID 12004742] | > 5000 | 491 ± 92
26 | COc1cc(CNCc2cccs2)ccc1OCc1ccccc1 [CID 2964134] | > 5000 | 164 ± 42
27 | COc1ccc(S(=O)(=O)Nc2ccc(O)c3ccccc23)cc1 [CID 871185] | > 5000 | 287 ± 145

From paper PMC2765639 (PLoS Neglected Tropical Diseases, 2009)
